Test results from patent US10537541B2, “Treatment of focal segmental glomerular sclerosis (FSGS) using therapeutically effective oral doses of 10-nitro-9(E)-octadec-9-enoic acid” (Complexa, Inc., priority 2015, dated 2020).
pIC50: −log10 of the molar value.

Tests used:
[1] = tested on: deoxycorticosterone acetate (DOCA)/salt-induced model of FSGS; experiment: DOCA salt study: histological assessment of kidney; format: in vivo, mice (129/sv strain); conditions: DOCA/salt mice, 4 weeks
Experimental: (§1) Induction of model: Male mice (129/sv strain) were purchased from Taconic Labs. The animals were uninephrectomized (Unx) at 6 weeks of age by the vendor and shipped one week after surgery. At 2 weeks post Unx, a DOCA or placebo pellet (21-day release pellets, 50 mg/pellet, Innovative Research of America, Sarasota, Fla.) was implanted s.c. All mice were then placed on a semisynthetic diet which contained a moderate fat content and a low phytoestrogen/anti-oxidant level, which approximates a normal human diet (4). A second DOCA or placebo pellet was implanted three weeks later.
(§2) Treatment: Mice were treated with placebo, 10-nitro-9(E)-octadec-9-enoic acid at a dose of 2.5 and 12.5 mg/kg, or enalapril (standard of care) for 4 weeks by oral gavage starting 2 weeks after the first DOCA implantation. One percent NaCl in tap water was given to each group except the sham control group. Body weight was measured weekly, and doses were readjusted based on the current body weight. Urine and blood samples were collected prior to treatment and at week 2 and 4 of treatment. Mice were terminated at week 4. Data is presented as the mean+SEM for the number of animals listed in each group.
Histological Assessment: Formalin fixed, paraffin embedded kidneys were sectioned at 3 microns and stained with hematoxylin and eosin (H&E), periodic acid-Schiff (PAS) and Masson's Trichrome for histological analysis. Slides were blindly evaluated by an experienced pathology investigator. Glomerular and tubular pathology, interstitial inflammation and interstitial fibrosis were semi-quantitatively scored on a scale of 0-4 as follows: 0=normal; 1=mild; 2=moderate; 3=marked; 4=severe.
Glomerular hypertrophy was evaluated by measuring glomerular area and expressed as a mean value of 50 glomeruli per kidney. Glomerular hypertrophy is an important marker for diabetic and hypertensive-mediated chronic kidney disease. […] This finding is consistent with unchanged gene expression profile for podocyte markers (Table 2), and seems reasonable given that the disease was relatively modest.

[2] = tested on: deoxycorticosterone acetate (DOCA)/salt-induced model of FSGS; experiment: DOCA salt study: urinary isoprostane and tetranor-PGDM by LC-MS; format: in vivo, mice (129/sv strain); conditions: DOCA/salt mice
Experimental: as §1, §2
Isoprostanes are a unique series of prostaglandin-like compounds formed in vivo via a non-enzymatic mechanism involving the free radical-initiated peroxidation of arachidonic acid. It has been shown that 8-iso-PGF2a (15-F2t-isoprostane) is the isoprostane that correlates best with increasing oxidative stress. Therefore, to assess the effect of treatment on oxidative stress, this isoform was measured using LC-MS. Also measured was tetranor-PGDM, a urinary metabolite of prostaglandin D2. […] On the other hand, elevated tetranor-PGDM was lowered with treatment of 10-nitro-9(E)-octadec-9-enoic acid and enalapril at the end time point (FIG. 18).

obese male subjects = experiment: Multiple ascending dose study in obese males: serum biomarkers (leptin, MCP-1, IL-6, triglycerides, cholesterol); format: in vivo, human
Description: Biomarker characterization included the following laboratory parameters: serum leptin, FBG, total cholesterol, HDL and LDL, triglycerides, HR, PR, QRS interval and T-wave morphology measured on ECGs extracted from cardiac Holter monitoring, measurements of serum RBP4, CRP, PAI-1, measurements of serum cytokines: IL-6, TNFα, MCP-1, measurements of the following biomarkers in whole blood by quantitative reverse transcriptase polymerase chain reaction (qRT-PCR) including: HO-1, NQ01, GCLM, HSP70 (HSP1A HSP1B, HSPA6), HSP22 (HSPB8) and HPS40 (DNAJA4), urine RBP4, MCP-1 and KIM-1, urinary exosomes by qRT-PCR including: HO-1, NQ01, GCLM, HSP70 (HSP1A HSP1B, HSPA6), HSP22 (HSPB8) and HPS40 (DNAJA4), gene and protein expression analyses by DNAseq, RNAseq, and western blots in PBMCs and ratio of EETs to DHETs in serum and urine.
This was a single-center, randomized, double-blind, placebo-controlled study of sequential multiple ascending doses of oral CXA-10 in obese male subjects. Eligible subjects included obese males age 19 to 57 years and BMI 27.0 to 39.5 kg/m^2. CXA-10 and placebo were provided as solutions in hard shell capsules. Three (3) cohorts of subjects were dosed once daily with CXA-10 for 14 days. The doses administered in this study were 25, 150 and 450 mg. Subjects enrolled in the highest dose level (450 mg) were administered 600 mg on day 1 then 450 mg for 13 days. This cohort (cohort 3) was given the option to receive an additional 450 mg dose on day 15 with a high fat (50%) breakfast.
Full PK profiles were obtained on Days 1 and 14. For subjects in cohort 3 who participate in the additional procedures on Day 15, full PK profiles were obtained on Days 1, 14, and 15. An abbreviated PK profile could also be obtained for the highest dose cohort only on one additional day. The actual day of PK sampling coincided with the additional day of Holter monitoring for the highest dose cohort. Subjects returned on Day 21 and Day 28 for PK, safety, and biomarker assessments.

CYP450 3A4 = CYP450 3A4 (Homo sapiens, UniProt P08684); experiment: In vitro CYP450 evaluation; format: in vitro ADME
db/db model = conditions: given by infusion; cited from earlier work

Sequence of CYP450 3A4 (P08684 whole entry, the tested form may be a part): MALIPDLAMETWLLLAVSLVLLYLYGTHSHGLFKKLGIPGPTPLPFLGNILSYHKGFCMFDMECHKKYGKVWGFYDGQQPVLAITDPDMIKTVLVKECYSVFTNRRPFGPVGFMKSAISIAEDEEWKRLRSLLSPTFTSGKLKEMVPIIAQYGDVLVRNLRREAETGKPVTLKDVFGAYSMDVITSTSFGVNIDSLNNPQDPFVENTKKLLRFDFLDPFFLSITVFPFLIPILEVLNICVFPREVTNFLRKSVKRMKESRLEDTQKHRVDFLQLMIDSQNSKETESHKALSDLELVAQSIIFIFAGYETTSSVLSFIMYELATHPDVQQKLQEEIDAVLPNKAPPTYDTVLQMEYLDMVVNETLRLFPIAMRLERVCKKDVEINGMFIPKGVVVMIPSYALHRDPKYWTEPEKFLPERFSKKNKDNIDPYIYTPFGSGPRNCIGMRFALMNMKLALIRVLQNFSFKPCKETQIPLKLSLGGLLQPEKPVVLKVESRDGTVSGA

Structure (SMILES): CCCCCCCC/C(=C\CCCCCCCC(=O)O)[N+](=O)[O-] [CXA-10, 10-nitro-9(E)-octadec-9-enoic acid]
- glomerulosclerosis: average scores and percent of glomerular damage (sclerosis) ([1]; both doses (2.5 and 12.5 mg/kg p.o. QD)): significantly reduced
- glomerular hypertrophy (glomerular area, mean of 50 glomeruli per kidney) ([1]; high dose 12.5 mg/kg p.o. QD): did not have an effect
- tubulointerstitial lesions ([1]; high dose 12.5 mg/kg p.o. QD): only slightly
- glomerular hypertrophy (glomerular area, mean of 50 glomeruli per kidney) ([1]; low dose 2.5 mg/kg p.o. QD): reduced
- tubulointerstitial lesions ([1]; low dose 2.5 mg/kg p.o. QD): improved
- urinary tetranor-PGDM ([2]; end time point): lowered
- urinary 8-iso-PGF2a, compared with the high dose or enalapril ([2]; low dose 2.5 mg/kg, not statistically significant): trended to have a greater reduction
- Cholesterol concentrations, change from baseline (obese male subjects; 150 mg): trend to decrease from baseline
- MCP-1 mean change from baseline compared to placebo (obese male subjects; 150 mg): significantly different compared to placebo
- Triglycerides LS Mean Difference (CI) (obese male subjects; 150 mg versus placebo, Day 8): -45.4 mg/dL
- MCP-1 LS Mean Difference (CI) (obese male subjects; 150 mg versus placebo, Day 14 (0-10 hr)): −228.5 (−387.2, −69.77) pg/mL
- Triglycerides LS Mean Difference (CI) (obese male subjects; 150 mg versus placebo, Day 15): -59.6 mg/dL
- decrease of leptin concentrations from baseline (obese male subjects; 150 mg, day 14, placebo increased 35%): 21.5%
- IL-6 concentrations, change from baseline (obese male subjects; 150 mg, days 7 and 14): trend to decrease from baseline
- Leptin % change from baseline (obese male subjects; Cohort 2 150 mg (n = 10), Day 14): −21.5%
- Leptin LS Mean Difference (CI) versus placebo (obese male subjects; Cohort 2 150 mg versus placebo, Day 14): −56.5 (−140.5, 27.5) pg/mL
- pIC50 (CYP450 3A4): < 4.48
- podocyte number (db/db model): increase in podocyte number
